Source: US11123398B2, “Chemotherapeutic combinations of cationic antimicrobial peptides and chemotherapeutics” (LYTIX BIOPHARMA AS, priority 2014, dated 2021)
Non-standard residues stand in square brackets, D forms with d. Residues, ends and D or L forms follow the SMILES beside them. Dip = N[C@H](C(=O)O)C(c1ccccc1)c1ccccc1

What was measured:
[1] = system: murine A20 B-cell lymphoma; experiment: Murine A20 B-cell lymphoma tumours in mice, dose levels; format: in vivo; conditions: for Mean tumour size at day 1: prior to start of treatment
Procedure: The administration took place by intratumoural injection of LTX-315 dissolved in sterile saline.
The mice were divided into four groups (see Table 8 below for details). The intratumoural treatment was initiated when the tumours had reached the desired size of approximately 5 mm in diameter (minimum of 20 mm^2).
Three dose levels of LTX-315, 1 mg (Group 1), 0.5 mg (Group 2) and 0.25 mg (Group 3) per injection, were investigated. The volume was 50 μl for all injections. LTX-315 was dissolved in sterile 0.9% NaCl water solution. This vehicle was used as control (Group 4). All four groups received three injections.
A caliper was used for tumour size measurements and weighing and physical examination were used as health control.

HL-60/ADR = experiment: MTS cytotoxicity assay, HL-60/ADR; format: cell-based, human; conditions: IC50 resistant / IC50 sensitive line; doxorubicin resistance
Procedure: (§1) Tumor cells were plated in 96-well flat-bottom microtitration plates (Nunc, Dutscher, Brumath, France) and incubated at 37° C. for 24 hours before treatment in 190 μl of drug-free culture medium supplemented or not with 10% FBS for adherent or suspension growing cell lines, respectively.
The adherent cell lines were washed once with 200 μl FBS-free culture medium before treatment. Tumor cells were incubated for 4 hours with 10 concentrations of compounds in ¼ dilution step with a top dose of 400 μM (range 4×10^−4 to 4×10^−10 M), with 1% (final concentration) Triton X-100 as positive control and FBS-free culture medium as negative control. The cells (190 μl) were incubated in a 200 μl final volume of FBS-free culture medium containing test substances at 37° C. under 5% CO2.
(§2) Three independent experiments were performed, each concentration being tested in quadruplicate. Control cells were treated with vehicle alone. At the end of treatments, the cytotoxic activity was evaluated by a MTS assay (see § 3.3.).
(§3) Like MTT, MTS is bioreduced by cells into a formazan product that is directly soluble in culture medium without processing, unlike MTT.
(§4) At the end of the cells treatment, 40 μl of a 0.22 μm filtered freshly combined solution of MTS (20 ml at 2 mg/ml, Ref G1111, Batch 235897, Exp March 2009, Promega, Charbonnières, France) and PMS (1 ml at 0.92 mg/ml, Ref P9625, Batch 065K0961, Sigma) in Dulbecco's Phosphate Buffered Saline (DPBS, Ref 17-513Q, Batch 6MB0152, Cambrex), were added in each well. Culture plates were incubated for 2 h at 37° C. Absorbency (OD) were measured at 490 nm in each well using VICTOR^3™ 1420 multilabeled counter (Wallac, PerkinElmer, Courtaboeuf, France).
(§5) IC50: drug concentration to obtain a 50% inhibition of cell proliferation.
(§6) The dose-response curves were plotted using XLFit 3 (IDBS, United Kingdom). The IC50 determination values were calculated using the XLFit 3 software from semi-log curves. Individual IC50 determination values as well as mean and SD values were generated.
Resistance index was calculated using the following formula: […]
Resistance index was calculated for each compound for each couple of sensitive and resistant cell lines. Individual resistance index was calculated when IC50 values of both sensitive and corresponding resistant cell lines were determined within same experiment. In addition, resistance index was also calculated ratio of mean IC50 values obtained during three independent experiments.

[2] = system: murine A20 B-cell lymphoma; experiment: Adoptive spleen cell transfer, A20 lymphoma model; format: in vivo, Balb/c mice; conditions: donors: 1 mg intratumoural once daily for 3 days
Procedure: […] Balb/c mice (n=32) were each inoculated with A20 cells (5 million in 50 μL s.c.) on the abdominal surface. Once tumours had reached 20 mm^2 they were injected with LTX-315 (1 mg) injected intratumourally, once daily for 3 days, in a volume of 50 μL. Tumour size (mm^2) and body weight were subsequently monitored and a further injection of LTX-315 was given if any tumour re-growth was observed. Subsequently, mice showing complete tumour regression were sacrificed and used as donors for transfer of splenocytes while naive donor mice were used as controls. Spleens from donor mice were excised and cells isolated. Naive receiver mice were irradiated and divided into 2 groups. Group 1 received isolated splenocytes from cured mice, whereas group 2 received isolated splenocytes from naive mice. Freshly prepared cells were injected (20×106 per 100 μl) via the tail vein. Twenty four hours later receiver mice were inoculated with 5 million murine A20 B-cell lymphoma cells on the abdominal surface as described above. Tumour size and body weight were monitored until the maximum tumour burden of ˜125 mm^2 was reached, or a serious adverse events occurred (i.e. wound formation due to tumour tissue necrosis) at which point mice were sacrificed.

[3] = system: panel of 37 human cancer cell lines; format: cell-based
Procedure: The adherent cell lines were washed once with 200 μl FBS-free culture medium before treatment. […] compounds in ¼ dilution step with a top dose of 400 μM (range 4×10^−4 to 4×10^−10 M), with 1% (final concentration) Triton X-100 as positive control and FBS-free culture medium as negative control. The cells (190 μl) were incubated in a 200 μl final volume of FBS-free culture medium containing test substances at 37° C. under 5% CO2.
as §2, §3, §4, §5, §6

MCF-7 = format: cell-based, human; conditions: 24 h
Procedure: as §1
(§7) The adherent cell lines were washed once with 200 μl FBS-free culture medium before treatment. […] top dose of 400 μM (range 4×10^−4 to 4×10^−10 M), with 1% (final concentration) Triton X-100 as positive control and FBS-free culture medium as negative control. The cells (190 μl) were incubated in a 200 μl final volume of FBS-free culture medium containing test substances at 37° C. under 5% CO2.
as §2, §3, §4, §5, §6

HL-60 = format: cell-based, human; conditions: 24 h
Procedure: as §1, §7, §2, §3, §4, §5, §6

IGROV-1 = format: cell-based, human; conditions: 24 h
Procedure: as §1, §7, §2, §3, §4, §5, §6

[4] = Group 1: 1 mg intratumoural once daily days 1,2,3
[5] = Group 2: 0.5 mg intratumoural once daily days 1,2,3
[6] = Group 3: 0.25 mg intratumoural once daily days 1,2,3

## NCCCC[C@H](NC(=O)[C@@H](NC(=O)[C@H](Cc1c[nH]c2ccccc12)NC(=O)[C@H](CCCCN)NC(=O)[C@H](CCCCN)NC(=O)[C@H](Cc1c[nH]c2ccccc12)NC(=O)[C@H](Cc1c[nH]c2ccccc12)NC(=O)[C@H](CCCCN)NC(=O)[C@@H](N)CCCCN)C(c1ccccc1)c1ccccc1)C(N)=O [LTX-315, K-K-W-W-K-K-W-Dip-K-NH2] (H-KKWWKKW[Dip]K-NH2)
[1]; 1 mg and 0.5 mg, first period of the study
  Anti-tumour effect: strong and rapid anti tumour effect
[1]; [4]
  Mean tumour size on day 4: 0 mm^2
  Mean tumour size on day 9: 3.70 ± 2.40 mm^2
  Mean tumour size on day 14: 12.43 ± 7.87 mm^2
  Mean tumour size at day 1: 25.82 ± 0.80 mm^2
[1]; Group 1: 1 mg x3, n=7
  Free of Tumour at end of Follow-Up: 42.8% (3/7)
  Relapse of Tumour: 25%
  Tumour Response: complete response: 57.2% (4/7)
  Tumour Response: no response: 0%
  Tumour Response: partial response: 42.8% (3/7)
[1]; [5]
  Mean tumour size on day 4: 0 mm^2
  Mean tumour size on day 9: 11.41 ± 4.69 mm^2
  Mean tumour size on day 14: 61.08 ± 23.84 mm^2
  Mean tumour size at day 1: 22.03 ± 0.63 mm^2
[1]; Group 2: 0.5 mg x3, n=7
  Free of Tumour at end of Follow-Up: 28.57% (2/7)
  Relapse of Tumour: 0% (0/2)
  Tumour Response: complete response: 28.57% (2/7)
  Tumour Response: no response: 0%
  Tumour Response: partial response: 71.42%
[1]; Group 3, 0.25 mg/dose, first days
  Anti-tumour effect: a small inhibitory effect is observed during the first days
[1]; [6]
  Mean tumour size on day 4: 20.60 ± 5.71 mm^2
  Mean tumour size on day 9: 68.49 ± 12.74 mm^2
  Mean tumour size on day 14: 69.42 ± 17.70 mm^2
  Mean tumour size at day 1: 21.25 ± 0.64 mm^2
[1]; Group 3: 0.25 mg x3, n=9
  Free of Tumour at end of Follow-Up: 0%
  Tumour Response: complete response: 0% (0/9)
  Tumour Response: no response: 77.77%
  Tumour Response: partial response: 22.22%
[1]; all LTX-315 groups, intratumoural
  Adverse events or toxic effects: Except from the wound formation no other adverse events or toxic effects were observed
[1]; optimal dose, Group 1 (1 mg x3)
  Treated mice with complete tumour response: 3 of 7
HL-60/ADR
  Resistance index (RI), HL-60/ADR: 1.45
[2]
  Tumour growth in irradiated recipients of splenocytes from LTX-315-cured donors versus naive donors: Inhibition of tumour growth was observed
[3]
  Potency rank among the five compounds tested, 37 cell line panel: most potent compound from the five compounds tested
[3]; 4 h
  IC50: 3630 ± 1450 nM
[3]; conclusion
  IC50 range against 37 human cancer cell lines: micromolar to ten micromolar range
MCF-7
  IC50: 1940 nM
HL-60
  IC50: 2070 nM
IGROV-1
  IC50: 6370 nM
